What all share (assay): NCI anticancer screen, dose series, 48 h
In test [1] the test system is U251 CNS.
For test [2], the system named is DLD-1 colon.
Test [3] has as its system LOX IMVI melanoma.
For test [4], the system named is KM12 colon.
Test [5] concerns SN12C renal.
The subject of test [6] is COLO 205 colon.
The test system of test [7] is CCRF-CEM leukemia.
In test [8] the test system is OVCAR-4 ovarian.
Test [9] concerns UO-31 renal.

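Tested at 5 concentrations; 48 h exposure; 96-well plates; endpoints linearly interpolated, else capped at highest concentration. GI50: concentration for 50% inhibition of growth. TGI marks complete inhibition of growth.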

Take `COc1ccccc1NC(=O)C1=C(C)NC(C)=C(C(=O)Nc2ccccc2OC)C1c1ccc(N(C)C)cc1`: the TGI in test [1] is over 100 µM; in test [2] it was 55.1 µM; in test [3] it was 42.2 µM; in [4], 56.9 µM; in [5], over 100 µM; in test [6] it was 92.1 µM. Further, the results for the TGI in test [7], in [8] and in test [9] were 52.4 µM, 91.2 µM and over 100 µM, respectively.
Regarding `COC(=O)C(CC(=O)c1c[nH]c2ccccc12)c1c[nH]c2ccccc12` (stereo not drawn), the TGI in test [1] is 50.4 µM; in test [2], over 100 µM; in test [4], over 10 µM; in test [7], 73.7 µM; in [8], 40.2 µM; in test [9] it was 39.3 µM.
Consider `CS(=O)(=O)NNS(=O)(=O)c1ccc(Cl)cc1`, for which the TGI in [1], in test [2], in test [3], in [4], in test [5] and in [6] was over 100 µM throughout. Further, the TGI in [7], in [8] and in test [9] was over 100 µM each time.
On to `Cc1cccc(N=C2NC(=O)C(CC(=O)Nc3ccc(C)cc3C)S2)c1` (stereo not drawn), for which the TGI in [1], in test [2], in test [3], in test [5], in test [7] and in test [8] was over 100 µM throughout. Besides, the TGI in [9] is over 100 µM.
`CC(/C=C/NNC1=NC(c2ccccc2)C(c2ccccc2)=NN1)Sc1ccccc1N` (stereo not drawn): the TGI came out at 8.39 µM in test [1]; 21.7 µM in test [2]; 11.4 µM in test [3]; 21.8 µM in test [4]; 18.2 µM in test [5]; 31 µM in test [6]. The TGI in [8] is 20 µM; in test [9] it was 20.1 µM.
With `COc1c(Sc2ccccc2)cc(Sc2ccccc2)c2cccnc12`, the TGI in test [1] was 70.7 µM; in test [2] it was over 100 µM; in [3], 42.7 µM; in test [4], over 100 µM; in [5], 97.6 µM; in test [6], 39 µM. Further, the TGI turned out to be 54.5 µM in test [7], 61.9 µM in [8] and 54 µM in test [9].
In the case of `COc1ccc2ccccc2c1CN1CCOCCOCCN(Cc2c(OC)ccc3ccccc23)CCOCCOCC1`, the TGI in test [1], in [2], in test [3], in test [4], in test [5] and in test [6] was over 100 µM in each case. Also, the TGI in [7], in test [8] and in test [9] was over 100 µM throughout.
As for `O=C(CSc1nc(-c2ccccc2)c(-c2ccccc2)[nH]1)NNC(=S)Nc1ccccc1`, the TGI in test [1], in test [2], in test [3], in test [4], in test [5] and in [6] was over 100 µM each time. In addition, the TGI in test [7], in [8] and in [9] was over 100 µM each time.
Regarding `COC(=O)c1ccc2c(c1)C(=O)c1c-2n(CCCN)c(=O)c2cc(OC)c(OC)cc12`, the GI50 in test [1] was 16 µM; in test [3], 14.6 µM; in test [4], 7.47 µM; in [5] it was 14.9 µM; in [6], 12.4 µM; in test [7], 3.78 µM. Besides, the GI50 in test [8] is 19.8 µM; in test [9] it was 21 µM. In addition, the TGI was 32.1 µM in test [1]; 32 µM in test [3]; 26 µM in [4]; 31.4 µM in test [5]; 27.7 µM in test [6]; 10.2 µM in test [7]. In addition, the figures for the TGI in [8] and in [9] were 40 µM and over 56.2 µM, respectively.
Take `CC(=O)c1cc(-c2ccccc2N)n(-c2ccc3c(c2)OCO3)c1C`: the GI50 is 0.277 µM in [1]; 0.297 µM in [3]; 0.295 µM in test [4]; 0.135 µM in [5]; 0.328 µM in [6]; 0.336 µM in test [7]. For the same compound, the values for the GI50 in test [8] and in test [9] were 0.924 µM and 0.696 µM, respectively. The TGI in [1] was over 100 µM; in test [3], over 100 µM; in [4], over 37.7 µM; in test [5], over 100 µM; in test [6], 1.32 µM; in test [7], over 100 µM. The TGI in test [8] was over 100 µM; in test [9], 45.5 µM.
Turning to `CNCCNc1nc2ccccc2c2c(=O)c3cc(F)ccc3sc12`, the GI50 in [1] is 1.63 µM; in test [3], 1.57 µM; in test [4] it was 1.74 µM; in [5] it was 1.61 µM; in [6], 1.67 µM; in test [7], 1.68 µM. Besides, the GI50 in [8] is 1.8 µM; in [9], 1.39 µM. Moreover, the TGI in [1] is 3.18 µM; in test [3], 2.98 µM; in [4], 3.25 µM; in test [5], 3.29 µM; in test [6], 3.36 µM; in test [7], 3.36 µM. For the same compound, the TGI in [8] stood at 3.66 µM; in [9], 2.81 µM.
Regarding `CC(=O)c1cccc(-c2cccc(-c3ccn(CCN4CCOCC4)n3)c2)c1`, the GI50 in test [1], in [3], in test [4], in [5], in test [6] and in test [7] was over 20 µM each time. Also, the GI50 in test [8] and in test [9] was over 20 µM in each case. In addition, the TGI in [1], in test [3], in [4], in [5], in test [6] and in test [7] was over 20 µM in each case. Also, the TGI in test [8] and in [9] was over 20 µM throughout.
On to `CC1(C)C(=O)C=CC2(C)C1CC(O)C1(C)C2CCC2(C)C(c3ccoc3)OC(=O)C3OC321` (stereo not drawn), for which the TGI in test [1] amounted to 40.5 µM; in test [3] it was 38.9 µM; in [4] it was 28.7 µM; in test [5], 37.4 µM; in test [6], 50.3 µM; in [7] it was 57.5 µM. Besides, the TGI in test [8] came out at 38.4 µM; in [9], 25.8 µM.

These data come from PubChem BioAssay (NCI).
